According to PubChem BioAssay AID248 (DTP/NCI, 2004):
Values joined by “and” are separate entries in the source; they are usually repeats but may differ in a detail not shown here. Equal values may be shown once. Inconclusive results and toxic doses are left out. No stated cut-off is given here; in the data, active means T/C of 150% or more; inactive means T/C below 125%.

Test system: L1210 leukemia ip in BDF1 mice, survival T/C
Assay: NCI In Vivo Anticancer Drug Screen. Data for tumor model L1210 Leukemia (intraperitoneal) in B6D2F1 (BDF1) mice
Details: endpoint: mean survival time, higher = longer survival
Method in brief: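 Each compound was tested against a transplantable tumor grown in mice. The endpoint was survival, with treated animals benchmarked against vehicle controls as a simple ratio.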

[1] = dose: 400.0 mg/kg/injection, schedule: Q01DX001 (ip), vehicle: carboxymethylcellulose (CMC)

Measured: T/C

Cc1cc(NC(=O)N(CCCl)N=O)c(C)cc1NC(=O)c1ccccc1
inactive: dose: 4.2 mg/kg/injection, schedule: Q01DX009 (ip), vehicle: carboxymethylcellulose (CMC) 124 % of control | dose: 9.6 mg/kg/injection, schedule: Q01DX001 (ip), vehicle: carboxymethylcellulose (CMC) 111 % of control | dose: 266.0 mg/kg/injection, schedule: Q01DX001 (ip), vehicle: other 91 % of control
active: dose: 14.0 mg/kg/injection, schedule: Q01DX009 (ip), vehicle: other 186 % of control | dose: 22.0 mg/kg/injection, schedule: Q01DX009 (ip), vehicle: other 196 % of control | dose: 33.0 mg/kg/injection, schedule: Q01DX009 (ip), vehicle: other 213 % of control | dose: 50.0 mg/kg/injection, schedule: Q01DX009 (ip), vehicle: carboxymethylcellulose (CMC) 180 % of control | dose: 58.0 mg/kg/injection, schedule: Q01DX009 (ip), vehicle: carboxymethylcellulose (CMC) 175 % of control | dose: 75.0 mg/kg/injection, schedule: Q01DX001 (ip), vehicle: carboxymethylcellulose (CMC) 159 % of control | dose: 75.0 mg/kg/injection, schedule: Q01DX009 (ip), vehicle: carboxymethylcellulose (CMC) 193 % of control | dose: 88.0 mg/kg/injection, schedule: Q01DX009 (ip), vehicle: carboxymethylcellulose (CMC) 190 % of control | dose: 120.0 mg/kg/injection, schedule: Q01DX001 (ip), vehicle: carboxymethylcellulose (CMC) 150 % of control | dose: 132.0 mg/kg/injection, schedule: Q01DX009 (ip), vehicle: carboxymethylcellulose (CMC) 228 % of control | dose: 177.0 mg/kg/injection, schedule: Q01DX001 (ip), vehicle: carboxymethylcellulose (CMC) 153 % of control | dose: 200.0 mg/kg/injection, schedule: Q01DX009 (ip), vehicle: carboxymethylcellulose (CMC) 163 % of control | dose: 266.0 mg/kg/injection, schedule: Q01DX001 (ip), vehicle: carboxymethylcellulose (CMC) 162 % of control | [1] 245 % of control | dose: 600.0 mg/kg/injection, schedule: Q01DX001 (ip), vehicle: carboxymethylcellulose (CMC) 219 % of control

N#CCc1nc2ccccc2[nH]1
inactive: dose: 50.0 mg/kg/injection, schedule: Q01DX009 (ip), vehicle: Klucel (hydroxypropylcellulose) (HPC) 97 % of control | dose: 50.0 mg/kg/injection, schedule: Q04DX003 (ip), vehicle: Klucel (hydroxypropylcellulose) (HPC) 101 % of control | dose: 100.0 mg/kg/injection, schedule: Q01DX001 (ip), vehicle: Klucel (hydroxypropylcellulose) (HPC) 102 % of control | dose: 100.0 mg/kg/injection, schedule: Q01DX009 (ip), vehicle: Klucel (hydroxypropylcellulose) (HPC) 98 % of control | dose: 100.0 mg/kg/injection, schedule: Q04DX003 (ip), vehicle: Klucel (hydroxypropylcellulose) (HPC) 98 % of control | dose: 200.0 mg/kg/injection, schedule: Q01DX009 (ip), vehicle: Klucel (hydroxypropylcellulose) (HPC) 88 % of control | dose: 200.0 mg/kg/injection, schedule: Q04DX003 (ip), vehicle: Klucel (hydroxypropylcellulose) (HPC) 101 % of control

Nc1cc(C(=O)Nc2ccc(C3=NCCN3)cc2)ccc1C(=O)Nc1ccc(C2=NCCN2)cc1
inactive: dose: 0.49 mg/kg/injection, schedule: Q01DX Z (ip), vehicle: saline 107 % of control | dose: 0.73 mg/kg/injection, schedule: Q01DX Z (ip), vehicle: saline 117 % of control | dose: 2.5 mg/kg/injection, schedule: Q01DX Z (ip), vehicle: methylcellulose (MC) 103 % of control | dose: 15.0 mg/kg/injection, schedule: Q01DX Z (oral), vehicle: carboxymethylcellulose (CMC) 96 % of control | dose: 20.0 mg/kg/injection, schedule: Q01DX Z (ip), vehicle: methylcellulose (MC) 94 % of control | dose: 30.0 mg/kg/injection, schedule: Q01DX Z (oral), vehicle: carboxymethylcellulose (CMC) 93 % of control | dose: 45.0 mg/kg/injection, schedule: Q01DX Z (ip), vehicle: carboxymethylcellulose (CMC) 101 % of control | dose: 47.0 mg/kg/injection, schedule: Q01DX Z (ip), vehicle: methylcellulose (MC) 86 % of control | dose: 60.0 mg/kg/injection, schedule: Q01DX Z (oral), vehicle: carboxymethylcellulose (CMC) 93 % of control | dose: 120.0 mg/kg/injection, schedule: Q01DX Z (oral), vehicle: carboxymethylcellulose (CMC) 117 % of control | dose: 240.0 mg/kg/injection, schedule: Q01DX Z (oral), vehicle: carboxymethylcellulose (CMC) 100 % of control | dose: 480.0 mg/kg/injection, schedule: Q01DX Z (oral), vehicle: carboxymethylcellulose (CMC) 94 % of control | dose: 960.0 mg/kg/injection, schedule: Q01DX Z (oral), vehicle: carboxymethylcellulose (CMC) 107 % of control
active: dose: 2.7 mg/kg/injection, schedule: Q01DX Z (ip), vehicle: carboxymethylcellulose (CMC) 153 % of control | dose: 4.0 mg/kg/injection, schedule: Q01DX Z (ip), vehicle: carboxymethylcellulose (CMC) 162 % of control | dose: 4.0 mg/kg/injection, schedule: Q01DX Z (ip), vehicle: methylcellulose (MC) 156 % of control | dose: 4.4 mg/kg/injection, schedule: Q01DX015 (ip), vehicle: carboxymethylcellulose (CMC) 259 % of control | dose: 6.0 mg/kg/injection, schedule: Q01DX Z (ip), vehicle: carboxymethylcellulose (CMC) 212 % of control | dose: 6.0 mg/kg/injection, schedule: Q01DX Z (ip), vehicle: methylcellulose (MC) 250 % of control | dose: 6.6 mg/kg/injection, schedule: Q01DX015 (ip), vehicle: carboxymethylcellulose (CMC) 329 % of control | dose: 9.0 mg/kg/injection, schedule: Q01DX Z (ip), vehicle: carboxymethylcellulose (CMC) 247 % of control | dose: 9.0 mg/kg/injection, schedule: Q01DX Z (ip), vehicle: methylcellulose (MC) 200 % of control and 346 % of control | dose: 10.0 mg/kg/injection, schedule: Q01DX015 (ip), vehicle: carboxymethylcellulose (CMC) 303 % of control | dose: 14.0 mg/kg/injection, schedule: Q01DX Z (ip), vehicle: carboxymethylcellulose (CMC) 345 % of control | dose: 14.0 mg/kg/injection, schedule: Q01DX Z (ip), vehicle: methylcellulose (MC) 226 % of control and 329 % of control | dose: 15.0 mg/kg/injection, schedule: Q01DX015 (ip), vehicle: carboxymethylcellulose (CMC) 333 % of control | dose: 20.0 mg/kg/injection, schedule: Q01DX Z (ip), vehicle: carboxymethylcellulose (CMC) 154 % of control and 279 % of control | dose: 30.0 mg/kg/injection, schedule: Q01DX Z (ip), vehicle: carboxymethylcellulose (CMC) 152 % of control

CN(N=O)C(=O)NCCNC(=O)N(C)N=O
inactive: dose: 150.0 mg/kg/injection, schedule: Q01DX Z (ip), vehicle: carboxymethylcellulose (CMC) 108 % of control

CCOC(=O)C(CO)NS(=O)(=O)c1ccc(C)cc1 (stereo unspecified)
inactive: dose: 75.0 mg/kg/injection, schedule: Q01DX001 (ip), vehicle: saline 103 % of control | dose: 75.0 mg/kg/injection, schedule: Q04DX003 (ip), vehicle: saline 102 % of control | dose: 150.0 mg/kg/injection, schedule: Q01DX001 (ip), vehicle: saline 106 % of control | dose: 150.0 mg/kg/injection, schedule: Q04DX003 (ip), vehicle: saline 103 % of control | dose: 300.0 mg/kg/injection, schedule: Q01DX001 (ip), vehicle: saline 103 % of control | dose: 300.0 mg/kg/injection, schedule: Q04DX003 (ip), vehicle: saline 97 % of control

O=C1CCCCCCCCCCCCCCCO1
inactive: dose: 100.0 mg/kg/injection, schedule: Q04DX002 (ip), vehicle: Klucel (hydroxypropylcellulose) (HPC) 90 % of control | dose: 200.0 mg/kg/injection, schedule: Q04DX002 (ip), vehicle: Klucel (hydroxypropylcellulose) (HPC) 93 % of control | dose: 400.0 mg/kg/injection, schedule: Q04DX002 (ip), vehicle: Klucel (hydroxypropylcellulose) (HPC) 93 % of control

COc1ccc(OC(=O)Nc2cccc(C(C)=O)c2)cc1
inactive: dose: 100.0 mg/kg/injection, schedule: Q01DX009 (ip), vehicle: other 106 % of control | dose: 200.0 mg/kg/injection, schedule: Q01DX009 (ip), vehicle: other 89 % of control | dose: 400.0 mg/kg/injection, schedule: Q01DX009 (ip), vehicle: other 101 % of control

C=C1CCCC(O)CCC1
inactive: dose: 75.0 mg/kg/injection, schedule: Q01DX001 (ip), vehicle: other 102 % of control | dose: 150.0 mg/kg/injection, schedule: Q01DX001 (ip), vehicle: other 98 % of control | dose: 300.0 mg/kg/injection, schedule: Q01DX001 (ip), vehicle: other 96 % of control

O=[N+]([O-])c1ncn(C2OC(CO)C(O)C2O)c1Br (stereo unspecified)
inactive: dose: 50.0 mg/kg/injection, schedule: Q01DX001 (ip), vehicle: saline 98 % of control | dose: 100.0 mg/kg/injection, schedule: Q01DX001 (ip), vehicle: saline 102 % of control | dose: 200.0 mg/kg/injection, schedule: Q01DX001 (ip), vehicle: saline 102 % of control | dose: 400.0 mg/kg/injection, schedule: Q01DX001 (ip), vehicle: saline 104 % of control

Cc1ccc(-c2ccno2)cc1
inactive: dose: 100.0 mg/kg/injection, schedule: Q01DX001 (ip), vehicle: carboxymethylcellulose (CMC) 96 % of control | dose: 200.0 mg/kg/injection, schedule: Q01DX001 (ip), vehicle: carboxymethylcellulose (CMC) 92 % of control | [1] 97 % of control
